Data: ChEMBL document CHEMBL1142197, “The relationship between quinolone exposures and resistance amplification is characterized by an inverted U: a new paradigm for optimizing pharmacodynamics to counterselect resistance” (2007)
In brackets after ≈: the same amount, converted by molar mass.

Experiments:
Type in all cases: functional
Staphylococcus aureus [1] = experiment: Antibacterial activity against ciprofloxacin-resistant methicillin-resistant Staphylococcus aureus by broth macrodilution method
Klebsiella pneumoniae [2] = experiment: Antibacterial activity against Klebsiella pneumoniae ATCC 13883 by broth macrodilution method
Staphylococcus aureus [3] = experiment: Antibacterial activity against ciprofloxacin-resistant methicillin-resistant Staphylococcus aureus at 48 hrs by broth macrodilution method
Klebsiella pneumoniae [4] = experiment: Antibacterial activity against Klebsiella pneumoniae ATCC 13883 by broth macrodilution method at 48 hrs; details: ATCC 13883, 48 h
Staphylococcus aureus [5] = experiment: Antibacterial activity against ciprofloxacin-susceptible methicillin-resistant Staphylococcus aureus at 48 hrs by broth macrodilution method
Staphylococcus aureus [6] = experiment: Antibacterial activity against ciprofloxacin-susceptible methicillin-resistant Staphylococcus aureus by broth macrodilution method

C[C@H]1NCc2cc(-c3ccc4c(=O)c(C(=O)O)cn(C5CC5)c4c3OC(F)F)ccc21 [GARENOXACIN] showed an MBC (Staphylococcus aureus [1]) of 0.32 µg/mL (≈ 0.75 µM), an MIC (Staphylococcus aureus [1]) of 0.16 µg/mL (≈ 0.375 µM) and an MBC (Klebsiella pneumoniae [2]) of 0.32 µg/mL (≈ 0.75 µM). The MIC (Klebsiella pneumoniae [2]) was 0.16 µg/mL (≈ 0.375 µM), the MIC (Staphylococcus aureus [3]) was 2.56 µg/mL (≈ 6 µM) and the MIC (Klebsiella pneumoniae [4]) was 0.64 µg/mL (≈ 1.5 µM). The MIC (Staphylococcus aureus [5]) was 0.08 µg/mL (≈ 0.188 µM), the MBC (Staphylococcus aureus [6]) was 0.32 µg/mL (≈ 0.75 µM) and the MIC (Staphylococcus aureus [6]) was 0.04 µg/mL (≈ 0.0938 µM).
